{
  "source": "patent US20140363871A1",
  "about": "“PROCESS FOR OBTAINING COPPER NANOPARTICLES FROM A FUNGUS SELECTED BETWEEN HYPOCREA LIXII AND TRICHODERMA KONINGIOPSIS AND USE OF FUNGI SELECTED BETWEEN HYPOCREA LIXII AND TRICHODERMA KONINGIOPSIS IN BIOREMEDIATION OF WASTEWATER AND PRODUCTION OF COPPER NANOPARTICLES” (VALE S.A., priority 2013, published 2014)",
  "key": {"H. lixii": {"test_system": "H. lixii", "test": "Minimum inhibitory concentration in agar medium (spot plate method)", "assay_type": "cell-based, Hypocrea lixii", "settings": "H. lixii on SDA plates with copper 50-2000 mg L^−1, 25° C., at least 5 days", "protocol": "(§1) Copper tolerance of the isolated fungus was determined as the minimum inhibitory concentration (MIC) by the spot plate method [Ahmad I, Ansari M I, Aqil F (2006) Biosorption of Ni, Cr and Cd by metal tolerante Aspergillus niger and Penicillium sp using single and multi-metal solution. Indian J Exp Biol 44: 73-76]. SDA plates containing different concentrations of copper (50 to 2000 mg L^−1) were prepared and inocula of the tested fungus were spotted onto the metal and control plates (plate without metal). The plates were incubated at 25° C. for at least 5 days. The MIC is defined as the lowest concentration of metal that inhibits visible growth of the isolate."}, "T. koningiopsis": {"test_system": "T. koningiopsis", "test": "Minimum inhibitory concentration in agar medium (spot plate method)", "assay_type": "cell-based, Trichoderma koningiopsis", "settings": "T. koningiopsis on SDA plates with copper 50-2000 mg L^−1, 25° C., at least 5 days", "protocol": "as §1"}},
  "data": [
    {"smiles": "O.O.[Cl][Cu][Cl]", "note": "[copper, CuCl2.2H2O]", "values": [
      {"measurement": "minimum inhibitory concentration (MIC), tolerance to copper", "setting": "H. lixii", "result": 528, "unit": "µg/mL"},
      {"measurement": "minimum inhibitory concentration (MIC), tolerance to copper", "setting": "T. koningiopsis", "result": 1057, "unit": "µg/mL"}
    ]}
  ]
}
